Laboratory results taken from patent publication US20240373851A1, “PEST CONTROL COMPOSITION AND PEST CONTROL METHOD” (SUMITOMO CHEMICAL COMPANY, LIMITED, priority 2021, published 2024).

How the values were obtained:
Format in all cases: in vivo
[1] = tested on: German cockroaches (Blattella germanica); assay: Test Example 4: control test against German cockroaches, spray in chamber; details: adult German cockroaches; 1.5 mL sprayed; concentration [%]: nicofluprole 0.01, imiprothrin 0.01, deltamethrin 0.0002, alone or mixed; 45 minutes after spraying
Experimental: (§1) Next, the usefulness of the inventive composition for controlling pests will be indicated by Test Examples. In general, the control effect to be expected when treated with a mixture obtained by mixing given two or three types of active ingredient compounds is determined by the Colby's calculation equation represented by the following [Equation 1] and [Equation 2].
(§2) [formula] • P: moribund and mortal rates (%) when treated with an active ingredient compound X in the concentration of m [ppm] • Q: moribund and mortal rates (%) when treated with an active ingredient compound Y in the concentration of n [ppm] • EA: moribund and mortal rates (%) when treated with an active ingredient compound X in the concentration of m [ppm] and an active ingredient compound Y in the concentration of n [ppm] (hereinafter referred to as expected value A) […]
(§3) Regarding the synergistic effect of three types of the active ingredient compounds, in case where the moribund and mortal rates (%) when actually treated with a mixture obtained by mixing three types of the active ingredient compounds exceed the expected value A calculated by using the moribund and mortal rates (%) when actually treated with a mixture obtained by mixing two types of the active ingredient compounds among three types thereof, and the moribund and mortal rates (%) calculated when actually treated the remaining one type of the active ingredient compound, or the expected value B (%) calculated from the moribund and mortal rates (%) when actually treated with each of three types of the active ingredient compounds alone, it was determined that the synergistic effect exists. […]

[2] = tested on: German cockroaches (Blattella germanica); assay: Test Example 2: control test against German cockroaches, spray in chamber; details: adult German cockroaches; 1.5 mL sprayed; concentration [%]: nicofluprole 0.01, imiprothrin 0.01, cypermethrin 0.01, alone or mixed; 120 minutes after spraying
Experimental: as §1, §2, §3

[3] = tested on: German cockroaches (Blattella germanica); assay: Test Example 7: control test against German cockroaches, spray in chamber; details: adult German cockroaches; 1.5 mL sprayed; concentration [%]: isocycloseram 0.05, imiprothrin 0.01, cypermethrin 0.01, alone or mixed; 120 minutes after spraying
Experimental: as §1, §2, §3

[4] = tested on: German cockroaches (Blattella germanica); assay: Test Example 1: control test against German cockroaches, spray in chamber (cup without filter paper); details: adult German cockroaches; 1.5 mL sprayed; concentration [%]: broflanilide 0.01, imiprothrin 0.01, cypermethrin 0.01, alone or mixed; 120 minutes after spraying
Experimental: as §1, §2
Regarding the synergistic effect of three types of the active ingredient compounds, in case where the moribund and mortal rates (%) when actually treated with a mixture obtained by mixing three types of the active ingredient compounds exceed the expected value A calculated by using the moribund and mortal rates (%) when actually treated with a mixture obtained by mixing two types of the active ingredient compounds among three types thereof, and the moribund and mortal rates (%) calculated when actually treated the remaining one type of the active ingredient compound, or the expected value B (%) calculated from the moribund and mortal rates (%) when actually treated with each of three types of the active ingredient compounds alone, it was determined that the synergistic effect exists.
In a plastic cup (diameter: 12.4 cm, height: 10.2 cm), ten adult German cockroaches (Blattella germanica) (five males and five females each) were released, and the plastic cup was placed in the center of the bottom of a box-shaped chamber (46 cm×46 cm×70 cm in height). […] After a lapse of 120 minutes from spraying, the number of dead and moribund individuals was examined, and moribund and mortal rates (%) were determined by the equation 3 below. […]

## C#CCN1CC(=O)N(COC(=O)[C@@H]2C(C=C(C)C)C2(C)C)C1=O (mixture of isomers) [Imiprothrin, imiprothrin]
[1]
  Moribund and mortal rates [%] after 45 minutes: 65%
[2]
  Moribund and mortal rates [%] after 120 minutes: 15%
[3]
  Moribund and mortal rates [%] after 120 minutes: 5%
[4]
  Moribund and mortal rates [%] after 120 minutes: 15%
